# Experiments:
# Assay in all cases: area over the GR curve, 72 h; higher = more effect;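 note: Dye Drop or Deep Dye Drop imaging of viable cells in 384-well plates (Hoechst nuclei, LIVE/DEAD dye), nine half-log doses, GR normalized to DMSO controls and time-zero plates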
# [1] = system: MDAMB436
# [2] = system: HCC1143
# [3] = system: CAL851
# [4] = system: MDAMB330
# [5] = system: BT20
# [6] = system: PDX1328
# [7] = system: SUM149
# [8] = system: SUM185PE
# [9] = system: SUM159
# [10] = system: MDAMB453
# [11] = system: HCC1419
Compound,area over the GR curve [1],area over the GR curve [2],area over the GR curve [3],area over the GR curve [4],area over the GR curve [5],area over the GR curve [6],area over the GR curve [7],area over the GR curve [8],area over the GR curve [9],area over the GR curve [10],area over the GR curve [11]
COc1ccc2c(c1)[C@]1(C[C@H]1c1ccc3c(/C=C/c4ccc(CN5C[C@@H](C)O[C@@H](C)C5)cc4)n[nH]c3c1)C(=O)N2,0.768 GR,0.534 GR,0.761 GR,0.438 GR,1.07 GR,0.553 GR,0.672 GR,0.161 GR,0.629 GR,0.537 GR,0.425 GR
COc1cccc(OCCCN)c1-c1cc(Nc2cnc(C#N)cn2)n[nH]1,0.545 GR,0.619 GR,0.608 GR,0.718 GR,0.973 GR,0.442 GR,0.793 GR,0.167 GR,0.533 GR,0.843 GR,0.413 GR
CC(=O)Nc1cccc(-n2c(=O)n(C3CC3)c(=O)c3c(Nc4ccc(I)cc4F)n(C)c(=O)c(C)c32)c1 (max 1 µM),0.182 GR,0.538 GR,0.41 GR,0.218 GR,0.176 GR,0.166 GR,0.39 GR,-0.0188 GR,0.347 GR,0.279 GR,0.285 GR
CCc1cnn2c(NCc3ccc[n+]([O-])c3)cc(N3CCCC[C@H]3CCO)nc12 (max 1 µM),0.483 GR,0.545 GR,0.686 GR,0.101 GR,0.672 GR,0.656 GR,0.687 GR,0.261 GR,0.465 GR,0.578 GR,0.443 GR
CC(=O)c1c(C)c2cnc(Nc3ccc(N4CCNCC4)cn3)nc2n(C2CCCC2)c1=O (max 3.162 µM),-0.0424 GR,0.255 GR,-0.0843 GR,0.47 GR,0.39 GR,0.252 GR,0.19 GR,0.0458 GR,0.186 GR,0.437 GR,0.208 GR
CCc1cncnc1N1CCN(Cc2nc3ccc(C(F)(F)F)cc3[nH]2)CC1 (max 10 µM),0.0903 GR,0.0639 GR,-0.0315 GR,0.0392 GR,-0.0022 GR,0.0319 GR,0.0207 GR,0.144 GR,0.0106 GR,-0.0403 GR,0.112 GR
CCCCOc1c(C(=O)c2c(F)cc(C)cc2F)c[nH]c2nncc1-2 (max 10 µM),0.355 GR,0.837 GR,0.672 GR,0.372 GR,0.84 GR,0.142 GR,0.637 GR,0.103 GR,0.466 GR,0.384 GR,0.301 GR
CCN1CCN(Cc2ccc(Nc3ncc(F)c(-c4cc(F)c5nc(C)n(C(C)C)c5c4)n3)nc2)CC1 (max 10 µM),0.187 GR,0.541 GR,0.228 GR,0.722 GR,0.569 GR,0.676 GR,0.344 GR,0.254 GR,0.372 GR,0.85 GR,0.433 GR
CNc1nc(-c2ccc3c(N)n[nH]c3c2)cc(N2C[C@@H](C(=O)NC3CCCCC3)CC[C@H]2C)n1 (max 10 µM),0.0007 GR,0.0906 GR,0.201 GR,0.498 GR,0.0701 GR,0.136 GR,0.0419 GR,0.224 GR,0.106 GR,0.266 GR,0.245 GR
CO[C@@H](C)Cn1c(=O)n(C)c2cnc3ccc(-c4cncc(C(C)(C)O)c4)cc3c21 (max 10 µM),0.372 GR,0.446 GR,0.771 GR,1.31 GR,0.768 GR,0.72 GR,0.286 GR,0.679 GR,0.727 GR,0.851 GR,0.979 GR
Cc1nn(C)c(COc2ccc(N3CCN(S(=O)(=O)N(C)C)CC3)cc2)c1-c1cccc2c(CCCOc3cccc4ccccc34)c(C(=O)O)n(CCN3CCOCC3)c12 (max 10 µM),0.014 GR,0.064 GR,0.0108 GR,0.0479 GR,-0.0396 GR,-0.0317 GR,0.0361 GR,0.117 GR,-0.0068 GR,-0.0756 GR,0.0402 GR
CN(C)CC[C@H](CSc1ccccc1)Nc1ccc(S(=O)(=O)NC(=O)c2ccc(N3CCN(Cc4ccccc4-c4ccc(Cl)cc4)CC3)cc2)cc1[N+](=O)[O-] [ABT-737] (max 10 µM),-0.0008 GR,0.102 GR,-0.0516 GR,0.189 GR,0.0208 GR,0.304 GR,0.142 GR,0.319 GR,0.0034 GR,-0.0061 GR,-0.0276 GR
C=CCn1c(=O)c2cnc(Nc3ccc(N4CCN(C)CC4)cc3)nc2n1-c1cccc(C(C)(C)O)n1 [AZD1775] (max 10 µM),0.497 GR,0.355 GR,0.491 GR,0.655 GR,0.198 GR,0.806 GR,0.614 GR,0.212 GR,0.253 GR,0.563 GR,0.238 GR
CNC(=O)c1cccc(-c2ccc3c(N4CCOC[C@@H]4C)nc(N4CCOC[C@@H]4C)nc3n2)c1 [AZD2014] (max 10 µM),0.363 GR,0.422 GR,0.637 GR,1.38 GR,0.484 GR,0.706 GR,0.385 GR,0.606 GR,0.481 GR,0.692 GR,0.942 GR
NC1(C(=O)N[C@@H](CCO)c2ccc(Cl)cc2)CCN(c2nc[nH]c3nccc2-3)CC1 [AZD5363] (max 10 µM),0.104 GR,0.0834 GR,0.106 GR,0.52 GR,0.298 GR,0.0959 GR,0.109 GR,0.267 GR,0.177 GR,0.234 GR,0.189 GR
C[C@@H]1COCCN1c1cc(C2([S@](C)(=N)=O)CC2)nc(-c2cc[nH]c3nccc2-3)n1 [AZD6738] (max 10 µM),0.0381 GR,0.0282 GR,0.071 GR,0.0364 GR,-0.0437 GR,0.172 GR,0.117 GR,0.0637 GR,0.0107 GR,0.0984 GR,0.0421 GR
NC(=O)Nc1cc(-c2cccc(F)c2)sc1C(=O)N[C@H]1CCCNC1 [AZD7762] (max 10 µM),0.65 GR,0.621 GR,0.648 GR,0.704 GR,0.197 GR,0.828 GR,0.657 GR,0.447 GR,0.277 GR,0.853 GR,0.561 GR
